In paper PMC8260761, “A bacteriocin-based treatment option for Staphylococcus haemolyticus biofilms” (Scientific Reports, 2021):

Experiments:
Assay in all cases: Spot-on-lawn inhibition assay
Format in all cases: cell-based
[1] = tested on: S. uberis; set-up: key: “-“ = No inhibition; “+” = Unclear zone; “++” = zone < 1 cm; “+++”= zone > 1 cm; details: 5 µl at 1 mg/ml, n=3
Experimental: (§1) A semi-quantitative spot-on-lawn inhibitory assay was performed on 51 bacterial indicator strains (Table S1) to determine the bacteriocins inhibition spectra. Overnight cultures were diluted 1:100 in BHI soft agar and distributed on BHI agar plates. Once solidified, bacteriocins with various concentrations were applied on designated spots. The plates were incubated at appropriate temperature O/N and inhibition zones were measured the following day. To determine minimal inhibitory concentration (MIC50) of H1 against clinical S. haemolyticus isolates (Table S2), as well as strains heterologously expressing RseP (Table S4), the microtiterplate antimicrobial assay was performed as previously described[41],[79]. MIC50 was defined as the minimal bacteriocin concentration needs to inhibit the growth of a bacterial strain by at least 50%.

[2] = tested on: L. innocua; set-up: key: “-“ = No inhibition; “+” = Unclear zone; “++” = zone < 1 cm; “+++”= zone > 1 cm; details: 5 µl at 1 mg/ml, n=3
Experimental: as §1

[3] = tested on: S. simulans; set-up: key: “-“ = No inhibition; “+” = Unclear zone; “++” = zone < 1 cm; “+++”= zone > 1 cm; details: S. simulans LMG 3233; 5 µl at 1 mg/ml; n=3
Experimental: as §1

[4] = tested on: S. thermophilus; set-up: key: “-“ = No inhibition; “+” = Unclear zone; “++” = zone < 1 cm; “+++”= zone > 1 cm; details: S. thermophilus Sfi13; 5 µl at 1 mg/ml; n=3
Experimental: as §1

[5] = tested on: L. gelidum; set-up: key: “-“ = No inhibition; “+” = Unclear zone; “++” = zone < 1 cm; “+++”= zone > 1 cm; details: L. gelidum LMG 2386; 5 µl at 1 mg/ml; n=3
Experimental: as §1

[6] = tested on: L. salivarius; set-up: key: “-“ = No inhibition; “+” = Unclear zone; “++” = zone < 1 cm; “+++”= zone > 1 cm; details: L. salivarius UCC118; 5 µl at 1 mg/ml; n=3
Experimental: as §1

[7] = tested on: S. epidermidis; set-up: key: “-“ = No inhibition; “+” = Unclear zone; “++” = zone < 1 cm; “+++”= zone > 1 cm; details: S. epidermidis LMG 3522; 5 µl at 1 mg/ml; n=3
Experimental: as §1

[8] = tested on: L. monocytogenes; set-up: key: “-“ = No inhibition; “+” = Unclear zone; “++” = zone < 1 cm; “+++”= zone > 1 cm; details: 5 µl at 1 mg/ml, n=3
Experimental: as §1

[9] = tested on: Staphylococcus arlettae; set-up: key: “-“ = No inhibition; “+” = Unclear zone; “++” = zone < 1 cm; “+++”= zone > 1 cm; details: Staphylococcus arlettae LMG 4134; 5 µl at 1 mg/ml; n=3
Experimental: as §1

[10] = tested on: L. lactis; set-up: key: “-“ = No inhibition; “+” = Unclear zone; “++” = zone < 1 cm; “+++”= zone > 1 cm; details: 5 µl at 1 mg/ml, n=3
Experimental: as §1

[11] = tested on: S. uberis; set-up: key: –: “−” = No inhibition; “+” = Unclear zone; “++” = zone < 1 cm; “+++” = zone ≥ 1 cm; details: S. uberis 7904-3; 5 µl at 1 mg/ml; n=3
Experimental: as §1

[12] = tested on: C. piscicola; set-up: key: –: “−” = No inhibition; “+” = Unclear zone; “++” = zone < 1 cm; “+++” = zone ≥ 1 cm; details: C. piscicola LMG 2332; 5 µl at 1 mg/ml; n=3
Experimental: as §1

[13] = tested on: Bacillus cereus; set-up: key: –: “−” = No inhibition; “+” = Unclear zone; “++” = zone < 1 cm; “+++” = zone ≥ 1 cm; details: 5 µl at 1 mg/ml, n=3
Experimental: as §1

[14] = tested on: L. monocytogenes; set-up: key: –: “−” = No inhibition; “+” = Unclear zone; “++” = zone < 1 cm; “+++” = zone ≥ 1 cm; details: L. monocytogenes EDGe; 5 µl at 1 mg/ml; n=3
Experimental: as §1

[15] = tested on: C. piscicola; set-up: key: “-“ = No inhibition; “+” = Unclear zone; “++” = zone < 1 cm; “+++”= zone > 1 cm; details: C. piscicola LMG 2332; 5 µl at 1 mg/ml; n=3
Experimental: as §1

[16] = tested on: Bacillus cereus; set-up: key: “-“ = No inhibition; “+” = Unclear zone; “++” = zone < 1 cm; “+++”= zone > 1 cm; details: 5 µl at 1 mg/ml, n=3
Experimental: as §1

[17] = tested on: L. monocytogenes; details: L. monocytogenes EDGe; 5 µl at 1 mg/ml; n=3
Experimental: as §1

[18] = tested on: S. aureus; set-up: key: –: “−” = No inhibition; “+” = Unclear zone; “++” = zone < 1 cm; “+++” = zone ≥ 1 cm; details: 5 µl at 1 mg/ml, n=3
Experimental: as §1

[19] = tested on: S. epidermidis; set-up: key: –: “−” = No inhibition; “+” = Unclear zone; “++” = zone < 1 cm; “+++” = zone ≥ 1 cm; details: S. epidermidis LMG 3522; 5 µl at 1 mg/ml; n=3
Experimental: as §1

[20] = tested on: Staphylococcus arlettae; set-up: key: –: “−” = No inhibition; “+” = Unclear zone; “++” = zone < 1 cm; “+++” = zone ≥ 1 cm; details: Staphylococcus arlettae LMG 4134; 5 µl at 1 mg/ml; n=3
Experimental: as §1

MKFKFNPTGTIVKKLTQYEIAWFKNKHGYYPWEIPRC [K1, enterocin K1]
Average inhibition score ([1]; S. uberis 8008-1): -
Average inhibition score ([2]; L. innocua LMG 2710): ++ (“++” = zone < 1 cm)
Average inhibition score ([2]; L. innocua LMG 2785): +++ (“+++”= zone > 1 cm)
Average inhibition score [3]: -
Average inhibition score [4]: -
Average inhibition score [5]: -
Average inhibition score [6]: -
Average inhibition score [7]: -
Average inhibition score ([8]; L. monocytogenes 223): -
Average inhibition score ([8]; L. monocytogenes 279): -
Average inhibition score ([8]; L. monocytogenes 400): -
Average inhibition score ([8]; L. monocytogenes 403): -
Average inhibition score [9]: -
Average inhibition score ([10]; L. lactis IL1403): +++ (“+++”= zone > 1 cm)
Average inhibition score ([10]; L. lactis LMG 2081): -
Average inhibition score [11]: +
Average inhibition score [12]: +
Average inhibition score ([13]; B. cereus LMG 2711): +
Average inhibition score ([13]; B. cereus LMG 2731): +
Average inhibition score ([13]; Bacillus cereus LMG 2805): +
Average inhibition score [14]: +

MLAKIKAMIKKFPNPYTLAAKLTTYEINWYKQQYGRYPWERPVA [EJ97, enterocin EJ97]
Average inhibition score ([1]; S. uberis 7904-3): -
Average inhibition score ([1]; S. uberis 8008-1): -
Average inhibition score [15]: -
Average inhibition score ([2]; L. innocua LMG 2710): +++ (“+++”= zone > 1 cm)
Average inhibition score ([2]; L. innocua LMG 2785): -
Average inhibition score [3]: -
Average inhibition score [4]: -
Average inhibition score [5]: -
Average inhibition score [6]: -
Average inhibition score ([16]; B. cereus LMG 2711): -
Average inhibition score ([16]; B. cereus LMG 2731): -
Average inhibition score ([16]; Bacillus cereus LMG 2805): -
Average inhibition score ([8]; L. monocytogenes 223): -
Average inhibition score ([8]; L. monocytogenes 279): -
Average inhibition score ([8]; L. monocytogenes 400): -
Average inhibition score ([8]; L. monocytogenes 403): -
Average inhibition score ([10]; L. lactis IL1403): +++ (“+++”= zone > 1 cm)
Average inhibition score ([10]; L. lactis LMG 2081): -
Average inhibition score [17]: +++ (“+++”= zone > 1 cm)
Average inhibition score ([18]; S. aureus LMG 3263): +
Average inhibition score ([18]; S. aureus LMG 3326): +
Average inhibition score [19]: +
Average inhibition score [20]: +
